Drawing on publication PMC5414976, “Reduction of reactive red 241 by oxygen insensitive azoreductase purified from a novel strain Staphylococcus KU898286” (PLoS ONE, 2017), this text covers Km for two compounds.

The test system of this test is T1, azoreductase.
T1 construct: native enzyme purified from strain S1 cells (sonication, ammonium sulphate, Sephadex G-100); 29 kDa by SDS-PAGE
Description: dye decolourisation at […] nm, Lineweaver-Burk. The class given is biochemical, Staphylococcus aureus.

As a reminder, the Km is the substrate concentration at which the rate is half of its maximum. With `NC(=O)C1=CN([C@@H]2O[C@H](COP(=O)(O)OP(=O)(O)OC[C@H]3O[C@@H](n4cnc5c(N)ncnc54)[C@H](O)[C@@H]3O)[C@@H](O)[C@H]2O)C=CC1` [NADH], for the setting “0.5 mM RR241, NADH varied”, the Km amounted to 1020 µM.

On to `O=S(=O)(O)OCCS(=O)(=O)c1ccc(Nc2nc(Cl)nc(Nc3cc(S(=O)(=O)O)cc4cc(S(=O)(=O)O)c(N=Nc5ccc6c(S(=O)(=O)O)cccc6c5S(=O)(=O)O)c(O)c34)n2)cc1` [RR241, reactive red 241], for which the Michaelis constant (Km) (constant NADH 1 mM (text; legend of Fig 4a says absence of NADH)) worked out at 1540 µM.
